Drawing on patent US20250002455A1, “NEW N-PHENYLPYRROLAMIDE INHIBITORS OF DNA GYRASE AND TOPOISOMERASE IV WITH ANTIBACTERIAL ACTIVITY” (priority 2020, published 2025), this text covers IC50, MIC and remaining activity for 7 compounds.

Like-named read-outs stand apart in the source and are kept apart here.

Assay [1] deals with T1, E. coli topoisomerase IV (Escherichia coli, UniProt P20083).
T1 construct: purchased Inspiralis
The experiment in a line: biochemical. Conditions: for remaining activity at 10 µM: 10 μM compound; for remaining activity at 1 µM: 1 μM compound. Here is the method: Inhibitory activities for compounds of the present invention were determined on E. coli and S. aureus DNA gyrase and topoisomerase IV in an assay from Inspiralis on streptavidin-coated 96-well microtiter plates from Thermo scientific Pierce. […] After washing off the unbound oligonucleotide, the enzyme test was performed. […] Reaction solutions were incubated at 37° C. for 30 min. After that, the TF buffer (50 mM NaOAc with pH 5.0, 50 mM NaCl and 50 mM MgCl2) was added to terminate the enzymatic reaction. After additional incubation for 30 min at rt, during which biotin-oligonucleotide-plasmid triplex was formed, the unbound plasmid was washed off using TF buffer and SybrGOLD in T10 buffer (10 mM Tris HCl with pH 8.0 and 1 mM EDTA) was added. […] Initial screening was done at 100 or 10 nM concentration of inhibitors against E. coli DNA gyrase or 1 μM or 100 nM concentration against S. aureus DNA gyrase and E. coli and S. aureus topo IV. […] GraphPad Prism 6.0 software was used to calculate the IC50 values. The result is given as the average value of three independent measurements. […] Chemoth.

The target in assay [2] is T2, S. aureus DNA gyrase (Staphylococcus aureus, UniProt P0A0K8).
T2 construct: purchased Inspiralis
The experiment in a line: biochemical. How it is done:
(§1) Inhibitory activities for compounds of the present invention were determined on E. coli and S. aureus DNA gyrase and topoisomerase IV in an assay from Inspiralis on streptavidin-coated 96-well microtiter plates from Thermo scientific Pierce. […] After washing off the unbound oligonucleotide, the enzyme test was performed. […] Reaction solutions were incubated at 37° C. for 30 min. After that, the TF buffer (50 mM NaOAc with pH 5.0, 50 mM NaCl and 50 mM MgCl2) was added to terminate the enzymatic reaction. After additional incubation for 30 min at rt, during which biotin-oligonucleotide-plasmid triplex was formed, the unbound plasmid was washed off using TF buffer and SybrGOLD in T10 buffer (10 mM Tris HCl with pH 8.0 and 1 mM EDTA) was added. […] GraphPad Prism 6.0 software was used to calculate the IC50 values. The result is given as the average value of three independent measurements. […] Chemoth.

Assay [3] has as its target T3, E. coli DNA gyrase (Escherichia coli, UniProt P0AES6).
T3 construct: purchased Inspiralis
The experiment in a line: biochemical. Here is the method:
as §1

For assay [4], the system named is S. aureus ATCC 29213. In words: Microbroth dilution MIC (CLSI). Type of assay: cell-based. The note with it: Staphylococcus aureus, ATCC29213. Here is the method: (§2) The chemical entities described in the present invention were assessed for their antimicrobial activity using a microbroth dilution assay as recommended by the CLSI (Methods for Dilution Antimicrobial Susceptibility Tests for Bacteria That Grow Aerobically, and Methods for Antimicrobial Susceptibility Testing of Anaerobic Bacteria, Clinical and Laboratory Standards Institute, Document M07-A8, and M11-A8, Wayne, PA 19087, USA, 2012.). Compounds were dissolved by using 100% DMSO. Serial two-fold dilutions of each compound were made by using 100% DMSO as the diluent.
(§3) A library of Gram-negative and Gram-positive microbes and their drug- and multidrug-resistant variants were employed as test organisms. The MIC (minimum inhibitory concentration) was determined as the lowest concentration of an individual drug that lead to no visible growth.

For assay [5], the system named is P. aeruginosa ATCC 27853. The experiment in a line: Microbroth dilution MIC (CLSI). Type of assay: cell-based. Conditions: Pseudomonas aeruginosa, ATCC27853. Here is the method:
as §2, §3

Assay [6] relates to E. coli ATCC 25922. The experiment in a line: Microbroth dilution MIC (CLSI). Type of assay: cell-based. Conditions: Escherichia coli, ATCC25922. Here is the method: as §2, §3
A general note: Dilution methods test growth across graded concentrations, often in twofold steps.

Assay [7] has as its system E. faecium ATCC 700221. In words: Microbroth dilution MIC (CLSI). It is filed as cell-based. Conditions: Enterococcus faecium, ATCC700221. How it is done:
as §2, §3

Assay [8] deals with E. spp. cloacae ATCC 13047. In words: Microbroth dilution MIC (CLSI). Type of assay: cell-based. Conditions: Enterobacter cloacae, ATCC13047. Here is the method:
as §2, §3

In assay [9] the test system is S. aureus ATCC 43300 (MRSA). In words: Microbroth dilution MIC (CLSI). It is filed as cell-based. The note with it: Staphylococcus aureus. Here is the method:
as §2, §3

For assay [10], the system named is K. pneumoniae ATCC 10031. The experiment in a line: Microbroth dilution MIC (CLSI). It is filed as cell-based. Conditions: Klebsiella pneumoniae, ATCC10031. Here is the method:
as §2, §3

Assay [11] has as its system E. faecalis ATCC 29212. In words: Microbroth dilution MIC (CLSI). It is filed as cell-based. The note with it: Enterococcus faecalis, ATCC29212. Here is the method: as §2, §3
The subject of assay [12] is S. aureus ATCC 700699 (VISA). The experiment in a line: Microbroth dilution MIC (CLSI). It is filed as cell-based. Conditions: Staphylococcus aureus. Here is the method: as §2, §3
The test system of assay [13] is A. baumannii ATCC 17978. The experiment in a line: Microbroth dilution MIC (CLSI). Type of assay: cell-based. Conditions: Acinetobacter baumannii, ATCC17978. How it is done:
as §2, §3

Where [14] appears, read: E. coli topo IV, read-out: IC50.
The mark [15] stands for this setting: S. aureus DNA gyrase, read-out: IC50.
The mark [16] stands for this setting: E. coli DNA gyrase, read-out: IC50.
Where [17] appears, read: S. aureus ATCC 29213, read-out: MIC.
The mark [18] stands for this setting: P. aeruginosa ATCC 27853, read-out: MIC.
Setting [19] is: E. coli ATCC 25922, read-out: MIC.
Where [20] appears, read: E. faecium ATCC 700221, read-out: MIC.
[21] abbreviates: E. spp. cloacae ATCC 13047, read-out: MIC.
[22] abbreviates: S. aureus ATCC 43300 (MRSA), read-out: MIC.
Where [23] appears, read: K. pneumoniae ATCC 10031, read-out: MIC.
Setting [24] is: E. faecalis ATCC 29212, read-out: MIC.
[25] abbreviates: S. aureus ATCC 700699 (VISA), read-out: MIC.
Where [26] appears, read: A. baumannii ATCC 17978, read-out: MIC.
[27] abbreviates: E. coli topo IV, read-out: RA (residual activity of the enzyme).

T2 sequence (P20831 whole entry): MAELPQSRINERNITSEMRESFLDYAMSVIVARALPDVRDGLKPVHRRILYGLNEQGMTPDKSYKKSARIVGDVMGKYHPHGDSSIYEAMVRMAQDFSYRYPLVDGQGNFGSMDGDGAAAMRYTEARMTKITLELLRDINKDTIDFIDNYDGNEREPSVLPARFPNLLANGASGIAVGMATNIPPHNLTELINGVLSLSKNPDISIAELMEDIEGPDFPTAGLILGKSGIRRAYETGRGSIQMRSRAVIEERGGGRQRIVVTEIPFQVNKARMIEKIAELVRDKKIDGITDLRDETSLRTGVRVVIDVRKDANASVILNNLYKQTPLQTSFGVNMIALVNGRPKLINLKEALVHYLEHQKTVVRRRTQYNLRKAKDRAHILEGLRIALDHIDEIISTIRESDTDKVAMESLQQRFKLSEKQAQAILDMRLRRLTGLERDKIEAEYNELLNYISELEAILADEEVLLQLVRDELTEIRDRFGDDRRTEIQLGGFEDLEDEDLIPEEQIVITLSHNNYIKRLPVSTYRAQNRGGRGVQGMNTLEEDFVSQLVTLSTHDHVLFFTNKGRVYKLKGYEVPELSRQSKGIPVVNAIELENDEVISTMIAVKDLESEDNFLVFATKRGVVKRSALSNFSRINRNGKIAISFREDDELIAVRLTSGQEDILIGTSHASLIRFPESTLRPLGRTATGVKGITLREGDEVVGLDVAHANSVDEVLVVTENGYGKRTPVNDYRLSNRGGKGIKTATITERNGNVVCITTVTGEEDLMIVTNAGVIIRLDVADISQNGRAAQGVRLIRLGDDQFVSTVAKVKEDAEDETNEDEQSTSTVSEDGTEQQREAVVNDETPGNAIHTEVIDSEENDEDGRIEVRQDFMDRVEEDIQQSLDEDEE
T2 sequence (P0A0K8 whole entry): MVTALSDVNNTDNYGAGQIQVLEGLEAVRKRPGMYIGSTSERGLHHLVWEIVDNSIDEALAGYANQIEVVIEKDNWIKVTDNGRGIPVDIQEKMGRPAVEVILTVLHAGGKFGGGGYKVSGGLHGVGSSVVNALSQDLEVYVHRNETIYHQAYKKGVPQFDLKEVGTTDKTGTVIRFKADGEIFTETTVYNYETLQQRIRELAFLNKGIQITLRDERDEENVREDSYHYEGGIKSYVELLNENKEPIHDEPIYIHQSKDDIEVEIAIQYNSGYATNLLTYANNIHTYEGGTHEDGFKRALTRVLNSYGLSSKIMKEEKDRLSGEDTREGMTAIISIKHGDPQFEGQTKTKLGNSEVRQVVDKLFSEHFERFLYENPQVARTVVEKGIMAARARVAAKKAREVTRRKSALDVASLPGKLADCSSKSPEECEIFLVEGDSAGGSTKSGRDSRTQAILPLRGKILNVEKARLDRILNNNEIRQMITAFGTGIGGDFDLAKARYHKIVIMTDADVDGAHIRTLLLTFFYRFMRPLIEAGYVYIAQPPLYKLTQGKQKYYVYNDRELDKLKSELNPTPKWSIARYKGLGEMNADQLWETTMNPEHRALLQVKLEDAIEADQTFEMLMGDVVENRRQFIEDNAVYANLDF
T1 sequence (P0AFI2 whole entry): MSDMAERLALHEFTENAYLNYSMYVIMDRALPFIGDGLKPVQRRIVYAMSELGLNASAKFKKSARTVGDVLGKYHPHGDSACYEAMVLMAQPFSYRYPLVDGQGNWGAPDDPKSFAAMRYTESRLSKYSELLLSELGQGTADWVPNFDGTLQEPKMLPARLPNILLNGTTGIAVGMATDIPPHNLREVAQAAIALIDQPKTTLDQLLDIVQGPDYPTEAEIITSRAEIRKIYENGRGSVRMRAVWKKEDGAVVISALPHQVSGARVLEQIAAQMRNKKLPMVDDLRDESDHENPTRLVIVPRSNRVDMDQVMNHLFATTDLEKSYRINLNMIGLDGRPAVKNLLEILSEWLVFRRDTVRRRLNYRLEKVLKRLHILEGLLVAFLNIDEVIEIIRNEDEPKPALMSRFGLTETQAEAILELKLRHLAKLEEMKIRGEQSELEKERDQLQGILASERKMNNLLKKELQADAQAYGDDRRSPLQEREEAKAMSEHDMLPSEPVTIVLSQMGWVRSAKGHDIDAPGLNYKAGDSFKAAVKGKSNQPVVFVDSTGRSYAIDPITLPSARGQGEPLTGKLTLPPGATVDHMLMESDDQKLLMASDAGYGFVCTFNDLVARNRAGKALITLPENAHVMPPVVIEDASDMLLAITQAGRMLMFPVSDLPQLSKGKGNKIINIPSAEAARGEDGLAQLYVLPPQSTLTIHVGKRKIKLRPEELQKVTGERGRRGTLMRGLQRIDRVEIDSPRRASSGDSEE
T1 sequence (P20083 whole entry): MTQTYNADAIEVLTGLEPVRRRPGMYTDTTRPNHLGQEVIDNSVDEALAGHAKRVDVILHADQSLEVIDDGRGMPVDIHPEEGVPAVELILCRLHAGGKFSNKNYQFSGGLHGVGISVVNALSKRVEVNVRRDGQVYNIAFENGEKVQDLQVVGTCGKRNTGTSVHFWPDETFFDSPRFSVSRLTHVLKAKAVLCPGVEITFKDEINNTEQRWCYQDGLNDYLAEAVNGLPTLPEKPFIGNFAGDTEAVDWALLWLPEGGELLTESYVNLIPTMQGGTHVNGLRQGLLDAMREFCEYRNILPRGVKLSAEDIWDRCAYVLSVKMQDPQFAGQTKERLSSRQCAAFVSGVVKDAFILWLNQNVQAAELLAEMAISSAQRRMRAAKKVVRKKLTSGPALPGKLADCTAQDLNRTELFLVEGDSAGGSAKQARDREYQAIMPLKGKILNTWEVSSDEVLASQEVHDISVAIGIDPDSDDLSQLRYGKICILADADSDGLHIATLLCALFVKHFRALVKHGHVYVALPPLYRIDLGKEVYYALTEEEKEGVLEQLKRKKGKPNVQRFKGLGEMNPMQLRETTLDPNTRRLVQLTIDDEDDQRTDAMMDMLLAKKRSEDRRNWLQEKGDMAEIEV

With `Cc1[nH]c(C(=O)Nc2ccc(-c3noc(=O)[nH]3)cc2NC2CCNCC2)c(Cl)c1Cl.Cl` [Example 4, 4-((2-(3,4-Dichloro-5-methyl-1H-pyrrole-2-carboxamido)-5-(5-oxo-4,5-dihydro-1,2,4-oxadiazol-3-yl)phenyl)amino)piperidin-1-ium chloride], the results for the IC50 in [1], in [2] and in [3] were 1.18 µM, 0.249 µM and 0.00966 µM, respectively. In addition, the MIC in assay [4], in assay [5], in assay [6], in [7], in assay [8] and in assay [9] was more than 64 µg/mL throughout. Moreover, the MIC in [10], in assay [11], in assay [12] and in [13] was more than 64 µg/mL in each case.
On to `Cc1[nH]c(C(=O)Nc2ccc(-c3nn[nH]n3)cc2N2CCCC(CN)C2)c(Cl)c1Cl.Cl` (stereo not shown) [Example 9, (1-(2-(3,4-Dichloro-5-methyl-1H-pyrrole-2-carboxamido)-5-(2H-tetrazol-5-yl)phenyl)piperidin-3-yl)methanaminium chloride], for which the values for the IC50 in [1] (setting [14]), in assay [2] (setting [15]) and in assay [3] (setting [16]) were 0.0603 µM, 0.035 µM and 0.00216 µM, respectively. Also, the MIC was 16 µg/mL in assay [4] (setting [17]); more than 64 µg/mL in assay [5] (setting [18]); more than 64 µg/mL in assay [6] (setting [19]); 16 µg/mL in assay [7] (setting [20]); more than 64 µg/mL in [8] (setting [21]); more than 64 µg/mL in [9] (setting [22]). For the same compound, the MIC in [10] (setting [23]) is 64 µg/mL; in [11] (setting [24]), 8 µg/mL; in assay [12] (setting [25]), more than 64 µg/mL; in assay [13] (setting [26]), more than 64 µg/mL.
For the compound `Cc1[nH]c(C(=O)Nc2ccc(-c3noc(=O)[nH]3)cc2N2CCCC(N)C2)c(Cl)c1Cl.Cl` (stereo not shown) [Example 2, 1-(2-(3,4-Dichloro-5-methyl-1H-pyrrole-2-carboxamido)-5-(5-oxo-4,5-dihydro-1,2,4-oxadiazol-3-yl)phenyl)piperidin-3-aminium chloride], the IC50 in [1] (setting [14]) is 0.145 µM; in assay [2] (setting [15]), 0.0558 µM; in [3] (setting [16]), 0.00249 µM. Moreover, the MIC in [4] (setting [17]) was more than 64 µg/mL; in assay [5] (setting [18]), more than 64 µg/mL; in assay [6] (setting [19]), more than 64 µg/mL; in assay [7] (setting [20]), 8 µg/mL; in assay [8] (setting [21]), more than 64 µg/mL; in [9] (setting [22]), more than 64 µg/mL. Moreover, the MIC in [10] (setting [23]) is 16 µg/mL; in [11] (setting [24]) it was 8 µg/mL; in assay [12] (setting [25]), more than 64 µg/mL; in assay [13] (setting [26]), more than 64 µg/mL.
With `Cc1[nH]c(C(=O)Nc2ccc(-c3n[nH]c(=O)o3)cc2OCCC2CCNCC2)c(Cl)c1Cl.Cl` [Example 29, 4-(2-(2-(3,4-Dichloro-5-methyl-1H-pyrrole-2-carboxamido)-5-(5-oxo-4,5-dihydro-1,3,4-oxadiazol-2-yl)phenoxy)ethyl)piperidin-1-ium chloride], the remaining activity at 10 µM in assay [1] (setting [27]) stood at 103%. The remaining activity at 0.01 µM in assay [3] (E. coli DNA gyrase, 10 nM compound, read-out: RA (residual activity of the enzyme)) was determined as 1%. Moreover, the MIC in assay [4] (setting [17]), in assay [5] (setting [18]), in assay [6] (setting [19]), in [7] (setting [20]), in assay [8] (setting [21]) and in assay [9] (setting [22]) was not below 32 µg/mL throughout. Moreover, the MIC in [10] (setting [23]), in [11] (setting [24]), in assay [12] (setting [25]) and in assay [13] (setting [26]) was not below 32 µg/mL throughout.
As to `Cc1[nH]c(C(=O)Nc2ccc(-c3noc(=O)[nH]3)cc2N2CCC(N)CC2)c(Cl)c1Cl.Cl` [Example 1, 1-(2-(3,4-Dichloro-5-methyl-1H-pyrrole-2-carboxamido)-5-(5-oxo-4,5-dihydro-1,2,4-oxadiazol-3-yl)phenyl)piperidin-4-aminium chloride], in [1] (E. coli topo IV, 0.1 μM compound, read-out: RA (residual activity of the enzyme)), the remaining activity at 0.1 µM came out at 105%. Besides, the remaining activity at 1 µM in assay [1] (setting [27]) worked out at 33%. The IC50 in [3] (setting [16]) was 0.000253 µM. Moreover, the MIC in [4] (setting [17]) was 64 µg/mL; in [5] (setting [18]), not below 64 µg/mL; in assay [6] (setting [19]), not below 64 µg/mL; in assay [7] (setting [20]), 32 µg/mL; in assay [8] (setting [21]) it was not below 64 µg/mL; in assay [9] (setting [22]) it was 32 µg/mL. The MIC in [10] (setting [23]) is 64 µg/mL; in [11] (setting [24]) it was 32 µg/mL; in assay [12] (setting [25]), 16 µg/mL; in assay [13] (setting [26]), not below 64 µg/mL.
Consider `Cc1[nH]c(C(=O)Nc2ccc(-n3nn[nH]c3=O)cc2N2CC[C@H](N)C2)c(Cl)c1Cl.Cl` [Example 22, (S)-1-(2-(3,4-Dichloro-5-methyl-1H-pyrrole-2-carboxamido)-5-(5-oxo-4,5-dihydro-1H-tetrazol-1-yl)phenyl)pyrrolidin-3-aminium chloride], for which the remaining activity at 1 µM in assay [1] (setting [27]) came to 97%. Also, in [1] (setting [27]), the remaining activity at 10 µM was found to be 26%. Also, the figures for the IC50 in assay [2] (setting [15]) and in assay [3] (setting [16]) were 0.121 µM and 0.0049 µM, respectively. Also, the MIC in [4] (setting [17]), in assay [5] (setting [18]), in [6] (setting [19]), in [7] (setting [20]), in assay [8] (setting [21]) and in assay [9] (setting [22]) was not below 32 µg/mL in each case. In addition, the MIC was not below 32 µg/mL in [10] (setting [23]), more than 64 µg/mL in assay [11] (setting [24]), more than 64 µg/mL in assay [12] (setting [25]) and not below 32 µg/mL in assay [13] (setting [26]).
As to `Cc1[nH]c(C(=O)Nc2ccc(-c3noc(=O)[nH]3)cc2N2CCCC(CN)C2)c(Cl)c1Cl.Cl` (stereo not shown) [Example 3, (1-(2-(3,4-Dichloro-5-methyl-1H-pyrrole-2-carboxamido)-5-(5-oxo-4,5-dihydro-1,2,4-oxadiazol-3-yl)phenyl)piperidin-3-yl)methanaminium chloride], the figures for the IC50 in assay [1] (setting [14]), in assay [2] (setting [15]) and in [3] (setting [16]) were 0.0418 µM, 0.0241 µM and 0.00319 µM, respectively. The MIC in assay [4] (setting [17]) was 4 µg/mL; in assay [5] (setting [18]), more than 64 µg/mL; in assay [6] (setting [19]) it was more than 64 µg/mL; in assay [7] (setting [20]), 2 µg/mL; in [8] (setting [21]) it was more than 64 µg/mL; in [9] (setting [22]), 4 µg/mL. The MIC in assay [10] (setting [23]) was 2 µg/mL; in assay [11] (setting [24]), 0.25 µg/mL; in assay [12] (setting [25]), 2 µg/mL; in assay [13] (setting [26]), more than 64 µg/mL.

A word on the IC50: it is the concentration at which inhibition is half-maximal. A word on the MIC: it is the lowest concentration that inhibits growth of the organism.
